Key:
Format in all cases: cell-based, murine
ISC-enriched organoids [1] = experiment: Primary screen, 384-well 2.5-D organoid differentiation (ENR+CD, 6 days): basal lysozyme secretion (LYZ.NS); details: strictly standardized mean difference, primary screen
Description: High-throughput screening.

Paneth cells [2] = experiment: Flow cytometry of 3D-cultured intestinal organoids (ENR+CD, 6 days): Paneth cell fraction (lysozyme-positive, CD24-mid)
Procedure: Flow cytometry analysis (3D culture). ISC-enriched organoids cultured in 3D Matrigel with ENRCV media were passaged to 24-well plate in 3D Matrigel with ENRCV. At day zero, media were replaced to ENRCD with or without indicated compounds, and media were replaced every other day. […] Flow cytometry was performed using an LSR Fortessa (BD; Koch Institute Flow Cytometry Core at MIT). The data were analyzed using FlowJo v10 software.
Single live cells were selected by several gating strategies and Paneth cells were identified as lysozyme-high, CD24-mid, side scatter-high (SSC-high) (FIG. 27E). […] To evaluate whether the culture media supplements C and D may alter the effects of the 6 hits, Applicants also performed lysozyme assay in the canonical ENR culture condition in 3-D (because Paneth cells exist in an immature state within ENR, Applicants were unable to robustly quantify Paneth cell number via flow cytometry).
(§1) Flow cytometry. ISC-enriched organoids in 3D Matrigel culture were passaged to a 48-well plate and induced differentiation for 6 days by ENR+CD media containing DMSO or each drug indicated in the figures. DMSO- or drug-containing media were changed every other day. […] After vigorous pipetting and incubation at 37° C. for 15 min, the cell solution was diluted twice with basal media and centrifuged at 300 rcf for 3 min. […] The cell solution was centrifuged again at 300 rcf for 3 min at 4° C. to pellet the cells. […] Cells were centrifuged again for 3 min at 300 rcf and blocked with staining buffer (FACS buffer containing 0.5% Tween20 (Sigma, P2287)) for 15 min at RT in the dark. […] Flow cytometry was performed using an LSR Fortessa (BD; Koch Institute Flow Cytometry Core at MIT). Flow cytometry data were analyzed using FlowJo X v10.6.1 software.
Live Paneth cells were identified as LYZ-high, CD24-mid, side scatter-high (SSC-high) (FIG. 50F).
as §1, with “organoids in 3-D Matrigel culture” for “organoids in 3D Matrigel culture”, “to a 24- or 48-well plate” for “to a 48-well plate”

ISC-enriched organoids [3] = experiment: Lysozyme secretion assay, 3-D organoids in ENR, normalized to ATP; details: 6 hit compounds, 6 days ENR, 10 μM Cch 3 h
Procedure: Lysozyme assay (3D culture). ISC-enriched organoids cultured in 3D Matrigel with ENRCV media were passaged to 48-well plate in 3D Matrigel with ENRCV. At day zero, media were replaced to ENR or ENRCD with or without indicated compounds, and media were replaced every other day. At day six, cells were washed twice with basal media and treated with carbamylcholine chloride (Sigma, C4382) for 3 hours. Media were collected and lysozyme activity was measured by EnzChek Lysozyme Assay Kit (ThermoFisher, E22013).
Lysozyme secretion assay. ISC-enriched organoids in 3D Matrigel culture were passaged to a 48- or 96-well plate and cultured with ENR or ENR+CD media containing DMSO or each drug for 6 days. DMSO- or drug-containing media were changed every other day. […] The fluorescence was measured using excitation/emission of 485/530 nm. […] The solution was replaced to a 96-well white microplate, and luminescent signals were measured by a microplate reader (infinite M200, Tecan). […] For both assays, a polynomial cubic curve was fitted to a set of standard data, and each sample value was calculated on the Microsoft Excel.
Lysozyme secretion assay. […] The fluorescence was measured using excitation/emission of 485/530 nm. […] The solution was replaced to a 96-well white microplate, and luminescent signals were measured by a microplate reader (infinite M200, Tecan). […]

Paneth cells [4] = experiment: Immunofluorescent imaging of organoids: LYZ+ cells per organoid area
Procedure: Immunofluorescent imaging. For immunofluorescence staining of organoids, intestinal organoids in Matrigel were fixed with 4% paraformaldehyde, then transferred to centrifuge tube. After washing with PBS, the isolated organoids were permeabilized with 1% Triton X followed by incubation with blocking buffer (1% BSA+3% Donkey Serum+0.2% Triton X in PBS) at RT. The organoids were then stained with primary antibodies and fluorescent dye-labeled secondary antibodies as well as with DAPI. Slides were covered with […]® Mounting Media (VECTOR). The following primary and secondary antibodies were used for the staining: rabbit anti-Lysozyme (1:1000, Thermo Fisher Scientific), rat anti-E-cadherin (1:1000, Thermo Fisher Scientific), Alexa Fluor 488 and 568 secondary antibodies (1:1000, Invitrogen). Images were acquired with a confocal laser scanning microscope (Nikon Eclipse 90i). For the analysis of Lysozyme+ cells per organoid area, the number of counted Lysozyme+ cells were normalized to measured organoid surface area. Image J was used for the data analysis.

## O=C(/C=C\n1cnc(-c2cc(C(F)(F)F)cc(C(F)(F)F)c2)n1)NNc1cnccn1 [KPT-330]
ISC-enriched organoids [1]; 1st of the 4 dose lines of the treatment (dose not given)
  SSMD.LYZ.NS: 1.021
ISC-enriched organoids [1]; 2nd of the 4 dose lines of the treatment (dose not given)
  SSMD.LYZ.NS: −1.822
ISC-enriched organoids [1]; 3rd of the 4 dose lines of the treatment (dose not given)
  SSMD.LYZ.NS: −1.556
ISC-enriched organoids [1]; 4th of the 4 dose lines of the treatment (dose not given)
  SSMD.LYZ.NS: −1.714
Paneth cells [2]; KPT-330 treatment day 0-2 of 6-day ENR+CD differentiation
  enrichment in mature Paneth cells at day 6: greatest enrichment in mature Paneth cells
Paneth cells [2]; KPT-330 treatment day 2-4
  enrichment in mature Paneth cells at day 6: moderate enrichment
Paneth cells [2]; KPT-330 treatment day 4-6
  enrichment in mature Paneth cells at day 6 (flow cytometry): no different than untreated
Paneth cells [2]; hit compound at most potent dose from 2.5-D screening, ENR+CD 6 days, 3-D culture, vs control
  mature Paneth cell population within organoids: significantly enhanced the mature Paneth cell population
ISC-enriched organoids [3]
  Paneth cell-specific activity (LYZ secretion) in conventional ENR culture: enhancing Paneth cell-specific activity
Paneth cells [4]; ENR with or without 160 nM KPT-330, 3 days
  LYZ+ Paneth cell number (IF imaging): pro-Paneth differentiation effect is also observed
Paneth cells [4]; ENR+CD with 160 nM KPT-330, 6 days
  LYZ+ Paneth cell number (IF imaging): an increase in Paneth cell number
